Measured values published in patent publication US20190381024A1, “NICOTINAMIDE FOR LOWERING PHOSPHATE LEVELS IN HYPERPHOSPHATEMIA” (MEDICE Arzneimittel Putter GmbH & Co. KG, priority 2015, published 2019).
Read-outs that look alike come from different tables or passages of the source.

Tests used:
NaPi-IIb [1] = biological target: T1, NaPi-IIb (Homo sapiens, UniProt O95436); details: duodenal and jejunal BBM; cited from earlier work
T1 sequence (O95436 1-690): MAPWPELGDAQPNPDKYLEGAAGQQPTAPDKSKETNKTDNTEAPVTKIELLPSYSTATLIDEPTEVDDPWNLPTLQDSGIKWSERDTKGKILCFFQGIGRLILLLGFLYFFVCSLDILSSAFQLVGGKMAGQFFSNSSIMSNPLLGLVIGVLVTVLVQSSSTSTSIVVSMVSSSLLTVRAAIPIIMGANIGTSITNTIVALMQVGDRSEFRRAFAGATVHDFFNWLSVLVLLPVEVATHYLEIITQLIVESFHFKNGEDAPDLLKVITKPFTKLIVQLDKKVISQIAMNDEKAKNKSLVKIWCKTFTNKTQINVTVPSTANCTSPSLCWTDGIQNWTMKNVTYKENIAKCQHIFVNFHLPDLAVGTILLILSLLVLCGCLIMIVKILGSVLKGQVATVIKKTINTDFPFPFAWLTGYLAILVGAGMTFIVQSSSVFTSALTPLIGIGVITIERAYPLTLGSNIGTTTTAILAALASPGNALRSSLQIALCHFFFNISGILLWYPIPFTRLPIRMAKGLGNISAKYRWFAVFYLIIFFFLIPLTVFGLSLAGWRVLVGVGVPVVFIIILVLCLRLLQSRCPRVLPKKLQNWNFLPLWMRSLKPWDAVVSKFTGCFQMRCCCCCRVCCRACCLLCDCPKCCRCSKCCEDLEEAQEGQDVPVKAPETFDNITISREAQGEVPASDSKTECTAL

NaPi-IIc = biological target: T2, NaPi-IIc (Homo sapiens, UniProt Q8N130); details: proximal renal tubule BBM (S1); cited from earlier work
T2 sequence (Q8N130 1-599): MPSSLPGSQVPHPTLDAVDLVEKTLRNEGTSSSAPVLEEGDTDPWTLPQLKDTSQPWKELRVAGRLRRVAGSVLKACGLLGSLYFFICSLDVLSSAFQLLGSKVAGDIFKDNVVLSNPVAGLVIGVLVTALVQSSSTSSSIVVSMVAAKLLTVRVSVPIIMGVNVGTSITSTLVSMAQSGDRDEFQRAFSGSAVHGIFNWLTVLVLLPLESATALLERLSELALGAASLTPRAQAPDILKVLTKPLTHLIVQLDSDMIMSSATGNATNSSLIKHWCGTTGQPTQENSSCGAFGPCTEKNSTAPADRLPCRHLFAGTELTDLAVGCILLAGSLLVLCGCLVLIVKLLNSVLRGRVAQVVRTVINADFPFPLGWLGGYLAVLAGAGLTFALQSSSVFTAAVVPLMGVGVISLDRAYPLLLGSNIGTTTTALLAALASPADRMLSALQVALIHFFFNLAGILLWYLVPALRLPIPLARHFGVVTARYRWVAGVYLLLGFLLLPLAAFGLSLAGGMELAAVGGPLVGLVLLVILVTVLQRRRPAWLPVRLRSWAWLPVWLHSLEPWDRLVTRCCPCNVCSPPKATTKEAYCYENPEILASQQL

NaPi-IIa = biological target: T3, NaPi-IIa (Homo sapiens, UniProt Q06495); details: proximal renal tubule BBM (S1-S3); cited from earlier work
T3 sequence (Q06495 1-639): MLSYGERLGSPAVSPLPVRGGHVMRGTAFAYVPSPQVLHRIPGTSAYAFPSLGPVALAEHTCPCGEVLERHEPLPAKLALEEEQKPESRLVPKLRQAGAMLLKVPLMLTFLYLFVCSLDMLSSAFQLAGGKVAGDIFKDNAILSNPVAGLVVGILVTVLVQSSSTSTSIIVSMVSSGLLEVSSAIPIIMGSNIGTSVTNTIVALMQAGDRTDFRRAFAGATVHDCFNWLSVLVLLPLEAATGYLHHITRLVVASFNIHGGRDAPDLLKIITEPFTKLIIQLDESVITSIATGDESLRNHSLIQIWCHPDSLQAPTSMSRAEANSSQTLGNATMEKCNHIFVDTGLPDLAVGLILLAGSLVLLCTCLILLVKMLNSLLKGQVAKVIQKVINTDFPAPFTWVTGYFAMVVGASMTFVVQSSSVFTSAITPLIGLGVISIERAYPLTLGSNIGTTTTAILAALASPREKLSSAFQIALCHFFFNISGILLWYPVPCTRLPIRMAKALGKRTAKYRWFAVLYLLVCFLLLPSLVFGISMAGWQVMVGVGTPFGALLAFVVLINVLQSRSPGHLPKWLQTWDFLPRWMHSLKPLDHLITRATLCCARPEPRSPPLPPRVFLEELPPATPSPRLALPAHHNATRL

[2] = Clinical study of serum phosphate levels in CKD patients on hemodialysis (FIG. 2-5); format: in vivo, human
Source text: A study has been undertaken wherein administration of a conventional phosphate binder as well as administration of nicotinamide has been compared with the administration of a combination of a phosphate binder and nicotinamide. For concrete numbers of the amount of patients tested as well as with regard to the phosphate binder and the dosing of phosphate binder and nicotinamide, further details can be taken from the following description, also with regard to the Figures.
These findings are derived from several clinical findings in which chronic renal insufficient patients underwent various medication regimes after an initial wash out phase over 4 weeks to eliminate and to control for pre-medication effects.

[3] = animals; cited from earlier work
NaPi-IIb receptor = test: Expression of NaPi-IIb receptor in the small intestine over 5 weeks (FIG. 1); format: in vivo; details: nicotinamide 10 mg/kg body weight, conventional binder calcium carbonate 10 mg/kg, sevelamer 20 mg/kg body weight
NaPi-IIb [4] = details: intraperitoneal administration; cited from earlier work
[5] = intraperitoneal administration; cited from earlier work
[6] = human, CKD patients; cited from earlier work

expression of NaPi-IIb in the small intestine (NaPi-IIb receptor)	SMILES	Pharmacological regulators (direction of regulation) of NaPi-IIb (NaPi-IIb [1])	Pharmacological regulators (direction of regulation) of NaPi-IIc (NaPi-IIc)	Pharmacological regulators (direction of regulation) of NaPi-IIa (NaPi-IIa)	reduction of serum phosphate ([2]; combination of nicotinamide and known phosphate lowering agents versus dose-equivalent nicotinamide alone or binders alone)	patients achieving target levels <1.78 mmol/l ([2]; nicotinamide 250 to 1000 mg once daily as add on to previous conventional phosphate binder therapy, 9 weeks, n=126 ITT) [%]	patients with phosphate levels <1.78 mmol/l ([2]; nicotinamide alone, 250 to 1000 mg oral once daily, 9 weeks, n=126 ITT) [%]	lowering elevated phosphate levels [3]	expression of NaPi-IIb (NaPi-IIb [4])	gastrointestinal absorption of phosphate [5]	lowering elevated phosphate levels [6]
–	O=C(O)P(=O)(O)O [PFA, Phosphonoformic acid]	PFA (↓)	PFA (↓)	PFA (↓)	–	–	–	–	–	–	–
downregulates	NC(=O)c1cccnc1 [nicotinamide]	Nicotinamide (↓)	–	–	more profound and superior reduction	69	45	effective	blocks	inhibits	effective
